In US12655116B2, “Substituted isophthalic acid diamides” (Bayer Aktiengesellschaft, priority 2020, dated 2026):
Where “and” joins values, the source holds several entries; their conditions need not be identical. Identical values can stand only once.

How the values were obtained:
ABUTH [1] = assay: Pre-emergence herbicidal action against ABUTH; format: in vivo, Abutilon theophrasti
Summary of the method: (§1)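 Greenhouse pots of sandy loam held seeds covered with soil, onto which the compound was applied before emergence. An aqueous suspension or emulsion of WP or EC was used at 600 to 800 l/ha with 0.2% wetting agent. Percent damage was judged visually at 3 weeks.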

ECHCG [2] = assay: Pre-emergence herbicidal action against ECHCG; format: in vivo, Echinochloa crus-galli; details: 80 g/ha
Summary of the method: as §1

VERPE [3] = assay: Pre-emergence herbicidal action against VERPE; format: in vivo, Veronica persica; details: dosage 80 g/ha
Summary of the method: as §1

ABUTH [4] = assay: Post-emergence herbicidal action against ABUTH; format: in vivo, Abutilon theophrasti; details: visual assessment about 3 weeks after treatment vs untreated controls
Summary of the method: (§2)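 Foliar application at one-leaf stage of formulated test compounds, aqueous spray at 600–800 l/ha with 0.2% wetting agent. Greenhouse, optimal conditions, ~3 weeks; damage scored visually in % relative to untreated plants.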

VERPE [5] = assay: Post-emergence herbicidal action against VERPE; format: in vivo, Veronica persica; details: 20 g/ha
Summary of the method: as §2

SETVI [6] = assay: Post-emergence herbicidal action against SETVI; format: in vivo, Setaria viridis; details: dosage 20 g/ha
Summary of the method: as §2

ALOMY [7] = assay: Pre-emergence herbicidal action against ALOMY; format: in vivo, Alopecurus myosuroides; details: 80 g/ha, pre-emergence, scored visually after 3 weeks vs untreated controls (100% = plants have died, 0% = like control plants)
Summary of the method: as §1

ALOMY [8] = assay: Post-emergence herbicidal action against ALOMY; format: in vivo, Alopecurus myosuroides; details: visual assessment about 3 weeks after treatment vs untreated controls
Summary of the method: as §2

AMARE [9] = assay: Post-emergence herbicidal action against AMARE; format: in vivo, Amaranthus retroflexus; details: 20 g/ha, visual assessment about 3 weeks after treatment, 100% = plants have died, 0% = like control plants
Summary of the method: as §2

MATIN [10] = assay: Post-emergence herbicidal action against MATIN; format: in vivo, Matricaria inodora; details: dosage 20 g/ha
Summary of the method: as §2

PHBPU [11] = assay: Post-emergence herbicidal action against PHBPU; format: in vivo, Pharbitis purpurea
Summary of the method: as §2

VIOTR [12] = assay: Post-emergence herbicidal action against VIOTR; format: in vivo, Viola tricolor
Summary of the method: as §2

PHBPU [13] = assay: Pre-emergence herbicidal action against PHBPU; format: in vivo, Pharbitis purpurea; details: dosage 80 g/ha
Summary of the method: as §1

AMARE [14] = assay: Pre-emergence herbicidal action against AMARE; format: in vivo, Amaranthus retroflexus
Summary of the method: as §1

AVEFA [15] = assay: Pre-emergence herbicidal action against AVEFA; format: in vivo, Avena fatua; details: 80 g/ha, pre-emergence
Summary of the method: as §1

LOLRI = assay: Pre-emergence herbicidal action against LOLRI; format: in vivo, Lolium rigidum; details: 80 g/ha
Summary of the method: as §1

ECHCG [16] = assay: Post-emergence herbicidal action against ECHCG; format: in vivo, Echinochloa crus-galli
Summary of the method: as §2

MATIN [17] = assay: Pre-emergence herbicidal action against MATIN; format: in vivo, Matricaria inodora
Summary of the method: as §1

AVEFA [18] = assay: Post-emergence herbicidal action against AVEFA; format: in vivo, Avena fatua; details: 20 g/ha, visual assessment about 3 weeks after treatment, 100% = plants have died, 0% = like control plants
Summary of the method: as §2

POLCO = assay: Pre-emergence herbicidal action against POLCO; format: in vivo, Polygonum convolvulus; details: dosage 80 g/ha
Summary of the method: as §1

SETVI [19] = assay: Pre-emergence herbicidal action against SETVI; format: in vivo, Setaria viridis; details: dosage 80 g/ha
Summary of the method: as §1

DIGSA [20] = assay: Pre-emergence herbicidal action against DIGSA; format: in vivo, Digitaria sanguinalis
Summary of the method: as §1

VIOTR [21] = assay: Pre-emergence herbicidal action against VIOTR; format: in vivo, Viola tricolor
Summary of the method: as §1

DIGSA [22] = assay: Post-emergence herbicidal action against DIGSA; format: in vivo, Digitaria sanguinalis
Summary of the method: as §2

[23] = 80 g/ha, scored visually after 3 weeks vs untreated controls (100% = plants have died, 0% = like control plants)

In the case of `CCn1nnnc1NC(=O)c1ccc(C(F)F)c(C(=O)NCC2CC2)c1C` [Example 2-47], the “Pre-emergence action against ABUTH (herbicidal activity)” value (ABUTH [1]; [23]) was 100%, the “Pre-emergence action against ABUTH (herbicidal activity in percent)” value (ABUTH [1]; dosage 20 g/ha, scored visually after 3 weeks vs untreated controls, 100% = plants have died, 0% = like control plants) was 100% and the “Pre-emergence action against ECHCG in %” value (ECHCG [2]) was 100%. For the same compound, the “Pre-emergence action against VERPE in %” value (VERPE [3]) was 100%, the “Post-emergence action against ABUTH in %” value (ABUTH [4]; dosage 5 g/ha) was 90% and 80% and the “Post-emergence action against ABUTH in %” value (ABUTH [4]; dosage 20 g/ha) was 90%. The “Post-emergence action against VERPE in %” value (VERPE [5]) was 80%, the “Post-emergence action against SETVI in %” value (SETVI [6]) was 90% and the “Pre-emergence action against ALOMY (herbicidal activity)” value (ALOMY [7]) was 100%. The “Post-emergence action against ALOMY in %” value (ALOMY [8]; dosage 5 g/ha) was 80%, the “Post-emergence action against ALOMY in %” value (ALOMY [8]; dosage 20 g/ha) was 90% and the “Post-emergence action at 20 g/ha against AMARE in %” value (AMARE [9]) was 90% and 100%. The “Post-emergence action against MATIN in %” value (MATIN [10]) was 80%, the “Post-emergence action against PHBPU in %” value (PHBPU [11]; dosage 5 g/ha) was 80% and the “Post-emergence action against PHBPU in %” value (PHBPU [11]; dosage 20 g/ha) was 90%. For the same compound, the “Post-emergence action against VIOTR in %” value (VIOTR [12]; 5 g/ha) was 80%, the “Post-emergence action against VIOTR in %” value (VIOTR [12]; 20 g/ha) was 90% and 80% and the “Pre-emergence action against PHBPU in %” value (PHBPU [13]) was 90%. For the same compound, the “Pre-emergence action against AMARE in %” value (AMARE [14]; 20 g/ha, scored visually after 3 weeks vs untreated controls, 100% = plants have died, 0% = like control plants) was 100%, the “Pre-emergence action against AMARE in %” value (AMARE [14]; [23]) was 100% and the “Pre-emergence action against AVEFA in %” value (AVEFA [15]) was 80%. For the same compound, the “Pre-emergence action against LOLRI in %” value (LOLRI) was 80%, the “Post-emergence action against ECHCG in %” value (ECHCG [16]; dosage 5 g/ha) was 80% and the “Post-emergence action against ECHCG in %” value (ECHCG [16]; dosage 20 g/ha) was 90% and 80%. The “Pre-emergence action against MATIN in %” value (MATIN [17]; dosage 20 g/ha) was 100%, the “Pre-emergence action against MATIN in %” value (MATIN [17]; dosage 80 g/ha) was 100% and the “Post-emergence action at 20 g/ha against AVEFA in %” value (AVEFA [18]) was 80%. The “Pre-emergence action against POLCO in %” value (POLCO) was 80%, the “Pre-emergence action against SETVI in %” value (SETVI [19]) was 100% and the “Pre-emergence action against DIGSA in %” value (DIGSA [20]; dosage 20 g/ha) was 100%. The “Pre-emergence action against DIGSA in %” value (DIGSA [20]; dosage 80 g/ha) was 100%, the “Pre-emergence action against VIOTR in %” value (VIOTR [21]; dosage 20 g/ha) was 80% and the “Pre-emergence action against VIOTR in %” value (VIOTR [21]; dosage 80 g/ha) was 100%. The “Post-emergence action against DIGSA in %” value (DIGSA [22]; 5 g/ha) was 90% and the “Post-emergence action against DIGSA” value (DIGSA [22]; 20 g/ha) was 90%.
